From patent US20230232831A1, “MONOTERPENOID AND PHENYLPROPANOID CARBONATE ESTERS AND METHODS OF THEIR MAKING AND USE AS REPELLENTS” (IOWA STATE UNIVERSITY RESEARCH FOUNDATION, INC., priority 2020, published 2023)
Entries after “also recorded” stand apart in the source; their conditions may differ.

Tests used:
Format in all cases: in vivo
Culex pipiens [1] = assay: Short-term spatial repellency, static air chamber; conditions: short-term assay, 1 mL of 0.5% solution, dried 15 minutes
Culex pipiens [2] = assay: Short-term spatial repellency, static air chamber; conditions: for short-term repellency (result in words): 1 mL of 0.5% solution on filter paper, 15-150 min
Protocol: FIG. 4 is a graph showing the repellency observed when 1 mL of a 0.5% solution of each compound was applied to a filter paper, dried for 15 minutes, and placed at the treated end of the repellency chamber. FIG. 6 is a graph showing repellency of various compounds against the mosquito species Culex pipiens observed when 1 mL of a 0.5% solution of each compound was applied to a filter paper, dried for 15 minutes, and placed at the treated end of the repellency chamber. The static air chamber used for the repellency assay has been described previously (Klimavicz et al., “Monoterpenoid Isovalerate Esters as Long-lasting Spatial Mosquito Repellents,” In Advances in the Biorational Control of Medicaland Veterinary Pests, American Chemical Society: 2018; Vol. 1289, pp 205-217; Peterson et al., “Identification of Components of Osage Orange Fruit (Maclura pomifera) and Their Repellency to German Cockroaches,” J. Essent. Oil Res. 14:233-236 (2002), which are hereby incorporated by reference in their entirety). For each assay run, a 90-mm Whatman No. 1 filter paper was treated with 1 mL acetone solution containing 0.5% w/v of a carbonate ester. The filter paper was supported upon several pins during the addition of the acetone solution to diminish wicking of the solution away from the filter paper, and the solution was added over approximately thirty seconds to allow acetone to evaporate during the addition to prevent dripping. After the addition of the solution was complete, remaining acetone was permitted to evaporate for […] before testing. A 600-mm-long clear glass cylinder with an inner diameter of 85 mm and a single hole (20 mm diameter) halfway along the side of the cylinder was used for the repellency chamber. One end of the chamber was capped with a glass petri dish (inner diameter 90 mm) containing an untreated 90-mm Whatman No. 1 filter paper, while the other end was likewise covered with a similar petri dish containing the treated filter paper. Immediately after capping both ends of the chamber, 20 non-blood-fed female Culex pipiens mosquitoes were anesthetized with carbon dioxide, and placed into the repellency chamber through the hole in the side of the cylinder via a funnel. The hole was sealed, and the number of mosquitoes on the treated and untreated halves were recorded at 15, 30, 60, 90, 120, and 150 minutes after introduction of the mosquitoes to the chamber. All statistical analysis was performed in R. To determine repellency of a given compound, the number of repelled mosquitoes and the total number of mosquitos the chamber for each trial at a given time point were fit to a beta-binomial distribution to account for overdispersion in the estimated repellency. Because percentage repellency is bound between -100% (completely attracting) and 100% (completely repelling), percentage repellency shown with error bars representing 50% confidence intervals determined from a non-chance-corrected beta-binomial fit to the data, using an inverse link function equal to the psychometric function for the duo-trio test. Statistical significance was determined by nonoverlap of these confidence intervals. Estimates of the proportion of mosquitoes repelled in the chamber was then transformed to percentage repellency, which is expressed as […]

Culex pipiens [3] = assay: Long-term repellency, treated filter paper placed in chamber 5 hours after application; conditions: filter paper placed 5 hours after compound was applied
Protocol: FIG. 5 is a graph showing the repellency observed when 1 mL of each compound was applied to a filter paper placed at the treated end of the repellency chamber 5 hours after compound was applied. FIG. 8 is a graph showing the repellency of various compounds observed when 1 mL of each compound was applied to a filter paper placed at the treated end of the repellency chamber 5 hours after compound was applied. An array of older and newly synthesized carbonates was chosen and tested for repellency activity. Six compounds were screened according to long-term repellency assays and three compounds were screened according to short-term repellency assays. These assays were all conducted using Culex pipiens mosquitoes. The compounds tested are illustrated in Table 1. An array of carbonates was chosen and tested for repellency activity. Some compounds were screened according to long-term repellency assays and some compounds were screened according to short-term repellency assays. These assays were conducted using Culex pipiens mosquitoes or Aedes aegypti mosquitoes.

Structure (SMILES) | short-term repellency (result in words) (Culex pipiens [2]) | further results
COC(=O)Oc1cc(C)ccc1C(C)C [Compound 4249, Thymyl methyl carbonate] | – | mortality seen in the repellency chamber (Culex pipiens [1]): significant mortality
CC(C)=CCCC(C)CCOC(=O)OC(C)C (stereo not shown) [Compound 1c, Citronellyl isopropyl carbonate] | numerically, but not statistically, less repellent than 1a | –
CC(C)=CCCC(C)CCOC(=O)OCC(C)C (stereo not shown) [Compound 1d, Citronellyl isobutyl carbonate] | numerically, but not statistically, less repellent than 1a | –
CC(C)=CCCC(C)CCOC(=O)Oc1ccccc1 (stereo not shown) [Compound 1f, Citronellyl phenyl carbonate] | weakest repellent effect | –
COC(=O)OCCC(C)CCC=C(C)C (stereo not shown) [Compound 1b, Citronellyl methyl carbonate] | numerically, but not statistically, less repellent than 1a | –
Cc1ccc(C(C)C)c(OC(=O)OCC(C)C)c1 [Compound 2d, Isobutyl thymyl carbonate] | slower onset of high repellency; also recorded: final estimated repellency was approximately the same | –
CCOC(=O)OC1CC2CCC1(C)C2(C)C (stereo not shown) [Compound 7a, Bornyl ethyl carbonate] | only modest repellency | –
CCOC(=O)OCCC(C)CCC=C(C)C (stereo not shown) [Compound 1a, Citronellyl ethyl carbonate] | numerically superior out of all the citronellyl carbonates | mosquitoes repelled in short-term repellency assay (Culex pipiens [2]; 1 mL of 0.5% w/v acetone solution on filter paper, assay extending out to 2.5 hours): approximately 90%
C=C(C)C1CCC(C)CC1OC(=O)OCC (stereo not shown) [Compound 3a, Ethyl isopulegyl carbonate] | – | long-term repellency (result in words) (Culex pipiens [3]): not able to repel mosquitoes very well at all
CCOC(=O)Oc1cc(C)ccc1C(C)C [Compound 2a, Ethyl thymyl carbonate] | final estimated repellency was approximately the same | short-term repellency (result in words) (Culex pipiens [2]; listed as Ethyl thymyl carbonate): excellent short-term repellent
CCOC(=O)OC1C=C(C)C2CC1C2(C)C (stereo not shown) [Compound 4251, Verbenyl ethyl carbonate] | – | mortality seen in the repellency chamber (Culex pipiens [1]): Very minimal amounts of mortality
